Source: patent US20220151989A1, “LIPOIC ACID PRODRUG” (SANTEN PHARMACEUTICAL CO., LTD., priority 2019, published 2022)

Key:
lens elasticity = assay: Pharmacological Test-5: lens elasticity, once-daily instillation for 1 week; format: in vivo, C57BL/6J mice
Procedure: The effect of once-daily instillation of Compound for 1 week on the lens elasticity was examined.
Compound 1 was stirred with the addition of Vehicle C to give a 0.1% (w/v) solution. A 0.03% […] solution and a 0.01% (w/v) solution were prepared in the same manner.
1) Each test sample (2.5 μL/eye) was instilled into both eyes of 9-month-old C57BL/6J mice with a Pipetman once per day (around 9:00) for 7 days. 2) After the final instillation, the mice were euthanized by carbon dioxide inhalation, and then the eyeballs were extracted and rinsed with Hank's balanced salt solution (HBSS). 3) The sclera near the optic nerve was cut with a razor, the lens was removed through the incision, and the removed lens was immersed in HESS. 4) The lens was placed on a glass slide, and an all-in-one fluorescence microscope BZ-9000 (Keyence) was used to capture an image of the lens (Image a). 5) Next, one cover glass (Corning^(registered trade mark) 22×22 mm Square) was placed on the lens, and an image in which the thickness of the lens changed due to the weight was similarly captured (Image b). 6) A change in the lens diameter was calculated from the following Equation 1 wherein the lens diameter of Image a is subtracted from the lens diameter of Image b. Then, the lens elasticity improvement of each sample group compared with the vehicle control group was calculated from Equation 2 described below. The mean value of the vehicle control group was based on 10 eyes, the mean values of Compound 1 sample group were based on 10 eyes.
Change in lens diameter=Lens diameter in Image b of each test sample−Lens diameter in Image a of each test sample (Equation 1)
Lens elasticity improvement of each sample group=Mean change in lens diameter of each Test sample group−Mean change in lens diameter of Vehicle control group (Equation 2)

[1] = tested on: anterior segment of the eye; assay: Ocular Irritation Test-2: McDonald-Shadduck method, lens observation, histopathological examination; format: in vivo, Japanese White rabbit; set-up: key to Irritation Score of anterior segment of the eye: Discharge / Irritation Score of anterior segment of the eye: Anterior chamber flare / Irritation Score of anterior segment of the eye: Light reflex / Irritation Score of anterior segment of the eye: Iris / Irritation Score of anterior segment of the eye: Corneal opacity / Irritation Score of anterior segment of the eye: Angiogenesis / Irritation Score of anterior segment of the eye: Corneal epithelial disorder / Lens / Histopathological examination of the eye / Irritation Score of anterior segment of the eye: Conjunctival hyperemia / Irritation Score of anterior segment of the eye: Conjunctival edema: +0.5: very slight; +1: slight; +2: moderate; +3: severe; —: No noteworthy findings; settings: for Histopathological examination of the eye / Irritation Score of anterior segment of the eye: Angiogenesis / Irritation Score of anterior segment of the eye: Anterior chamber flare / Irritation Score of anterior segment of the eye: Conjunctival edema / Irritation Score of anterior segment of the eye: Conjunctival hyperemia / Irritation Score of anterior segment of the eye: Corneal epithelial disorder / Irritation Score of anterior segment of the eye: Corneal opacity / Irritation Score of anterior segment of the eye: Discharge / Irritation Score of anterior segment of the eye: Iris / Irritation Score of anterior segment of the eye: Light reflex / Lens: 50 μL/eye twice per day for 2 weeks
Procedure: Compound 1 was stirred with the addition of Vehicle C to give a 0.3% (w/v) solution, and the resulting solution was diluted with Vehicle C to give a 0.1% (w/v) solution. Further, the resulting 0.1% (w/v) solution was diluted with. Vehicle C to give a 0.03% (w/v) solution.
0.03% (w/v), 0.1% (w/v), and 0.3% (w/v) Compound 1 eye drops were each instilled into the left eye of a Japanese White rabbit at a dose of 50 μL/eye with pipette twice per day at a 6-hour interval for 2 weeks. One hour after the final instillation, ocular irritation of anterior segment of the eye was evaluated using a slit lamp according to the McDonald-Shadduck method, and the lens was observed. At the end of the treatment period, histopathological examination of the eye was performed. The contralateral eye was untreated.
The ocular irritation of anterior segment of the eye was scored according to the following criteria:
+1: slight; +2: moderate; +3: severe.

CC(C)=CCOC(=O)CCCC[C@@H]1CCSS1 [Compound 1, 3-Methyl-2-buten-1-yl (R)-5-(1,2-dithiolan-3-yl)pentanoate]
60.1 μm: Lens elasticity improvement (lens elasticity; 0.1% (w/v) solution in Vehicle C, both eyes, once per day for 7 days, 9-month-old mice)
10.6 μm: Lens elasticity improvement (lens elasticity; 0.01% (w/v) solution in Vehicle C, both eyes, once per day for 7 days, 9-month-old mice)
20.3 μm: Lens elasticity improvement (lens elasticity; 0.03% solution in Vehicle C, both eyes, once per day for 7 days, 9-month-old mice)
potent lens elasticity improvement: Lens elasticity improvement (lens elasticity; concentration of 0.1%, once-daily for 1 week)
No ocular irritation was observed: ocular irritation ([1]; 0.03%, 0.1% and 0.3% eye drops, twice per day for 2 weeks)
—: Histopathological examination of the eye ([1]; 0.03% eye drop) | Irritation Score of anterior segment of the eye: Angiogenesis ([1]; 0.03% eye drop) | Irritation Score of anterior segment of the eye: Anterior chamber flare ([1]; 0.03% eye drop) | Irritation Score of anterior segment of the eye: Conjunctival edema ([1]; 0.03% eye drop) | Irritation Score of anterior segment of the eye: Conjunctival hyperemia ([1]; 0.03% eye drop) | Irritation Score of anterior segment of the eye: Corneal epithelial disorder ([1]; 0.03% eye drop) | Irritation Score of anterior segment of the eye: Corneal opacity ([1]; 0.03% eye drop) | Irritation Score of anterior segment of the eye: Discharge ([1]; 0.03% eye drop) | Irritation Score of anterior segment of the eye: Iris ([1]; 0.03% eye drop) | Irritation Score of anterior segment of the eye: Light reflex ([1]; 0.03% eye drop) | Lens ([1]; 0.03% eye drop) | Histopathological examination of the eye ([1]; 0.1% eye drop) | Irritation Score of anterior segment of the eye: Angiogenesis ([1]; 0.1% eye drop) | Irritation Score of anterior segment of the eye: Anterior chamber flare ([1]; 0.1% eye drop) | Irritation Score of anterior segment of the eye: Conjunctival edema ([1]; 0.1% eye drop) | Irritation Score of anterior segment of the eye: Conjunctival hyperemia ([1]; 0.1% eye drop) | Irritation Score of anterior segment of the eye: Corneal epithelial disorder ([1]; 0.1% eye drop) | Irritation Score of anterior segment of the eye: Corneal opacity ([1]; 0.1% eye drop) | Irritation Score of anterior segment of the eye: Discharge ([1]; 0.1% eye drop) | Irritation Score of anterior segment of the eye: Iris ([1]; 0.1% eye drop) | Irritation Score of anterior segment of the eye: Light reflex ([1]; 0.1% eye drop) | Lens ([1]; 0.1% eye drop) | Histopathological examination of the eye ([1]; 0.3% eye drop) | Irritation Score of anterior segment of the eye: Angiogenesis ([1]; 0.3% eye drop) | Irritation Score of anterior segment of the eye: Anterior chamber flare ([1]; 0.3% eye drop) | Irritation Score of anterior segment of the eye: Conjunctival edema ([1]; 0.3% eye drop) | Irritation Score of anterior segment of the eye: Conjunctival hyperemia ([1]; 0.3% eye drop) | Irritation Score of anterior segment of the eye: Corneal epithelial disorder ([1]; 0.3% eye drop) | Irritation Score of anterior segment of the eye: Corneal opacity ([1]; 0.3% eye drop) | Irritation Score of anterior segment of the eye: Discharge ([1]; 0.3% eye drop) | Irritation Score of anterior segment of the eye: Iris ([1]; 0.3% eye drop) | Irritation Score of anterior segment of the eye: Light reflex ([1]; 0.3% eye drop) | Lens ([1]; 0.3% eye drop)
